# Test results taken from publication PMC11251039, “Harnessing cholesterol uptake of malaria parasites for therapeutic applications” (EMBO Molecular Medicine, 2024).
# Several values for one entry are separate records, joined by “and”; a condition that tells them apart may be missing. Identical values can stand only once.
# Columns and labels:
# [1] = system: P. falciparum stage V gametocytes; test: P. falciparum gametocyte viability assay (MitoTracker, flow cytometry), stage V; assay type: cell-based, Plasmodium falciparum; conditions: 48 h
# Protocol: (§1) Gametocyte assays commenced seven days (stage III–IV) or ten days (stage V) post-invasion. […]
# (§2) Plasmodium falciparum Gametocyte Viability Assays:
# (§3) Asexual P. falciparum parasites were induced to form gametocytes as described (21).
# (§4) Synchronized trophozoite-stage parasites at 2% parasitaemia were incubated overnight and […]
# (§5) haematocrit maintained at 4%. On the subsequent day (designated as day 0) of gametocytogenesis, the culture containing early ring-stage parasites was first purified by sorbitol synchronisation to remove asynchronous trophozoites, and passed through a magnetic field in a sterile MACS® column in a SuperMACSTM II magnet to remove remaining late-stage parasites or later-stage gametocytes (negative selection). The culture medium was supplemented with 50 mM N-acetyl-D-glucosamine to inhibit asexual parasite proliferation, and changed daily. Sorbitol treatment was performed on Day 1, 5, and 6 to further remove asexual parasites. Gametocytes were magnetically enriched (positive selection) in a sterile column with a SuperMACSTM II magnet and eluted in culture media with 50 mM N-acetyl-D-glucosamine. These gametocytes were incubated overnight at 37 °C under microaerophilic conditions, and purity was assessed by examination under a light microscope (400× […]
# (§6) Gametocyte viability was assessed as described by Ridgway et al. (21) with modifications.
# (§7) Compounds or solvent controls (DMSO) were serially diluted across 96-well plates in culture media supplemented with 50 mM N-acetyl-D-glucosamine. Culture media without compound was used as a negative control. […]
# (§8) control to determine background gametocyte fluorescence. Stage III-IV gametocytes (Day 7) or stage V (day 10) gametocytes were concentrated and added to the plate with 200 µL per well. The plate was incubated for 48 hours at 37 °C under humid microaerophilic conditions.
# (§9) Parasites were then stained with 500 nM MitoTrackerTM Deep Red FM and 5 μg/ml Hoechst […]
# (§10) cytometer as described above. […]
# (§11) excluded. Live (positive) and dead (negative) gametocytes were differentiated by […]
# (§12) percentage of each was calculated. […]
# P. berghei liver stages = test: Plasmodium berghei liver stage growth inhibition assay (luminescence, in Huh7 cells); conditions: for P. berghei liver stage growth, dose-response data points (Figure 3A): replicate data points; for P. berghei liver stage growth, dose-response data points (Figure 3A) / Figure 3E dose-response value (replicates): listed as BC5B
# [2] = system: P. falciparum stage III–IV gametocytes; test: P. falciparum gametocyte viability assay (MitoTracker, flow cytometry), stage III-IV; assay type: cell-based, Plasmodium falciparum; conditions: 48 h, replicate values, source data Fig. 2C, listed as BC5B
# Protocol: as §1, §2, §3, §4, §5, §6, §7, §8, §9, §10, §11, §12
smiles,measurement,setting,value
COc1cc(NC(C)CCCNC(=O)CCC(=O)O[C@H]2CC[C@H]3[C@@H]4CC=C5C[C@@H](O)CC[C@]5(C)[C@H]4CC[C@]23C)c2ncccc2c1 (stereo partly shown) [C-17-PQ],Fold reduction in IC50 compared to primaquine alone,[1],> 2 fold
same,viability at 3.125 µM,"[1]; Plasmodium falciparum, read-out: Gametocyte stage V viability, percentage of control, 3.125000000 uM, 48 h, replicate values, source data Fig. 2D",74.7%
same,IC50,"[1]; Plasmodium falciparum, read-out: IC50, P. falciparum gametocyte stage V inhibition",6.8 µM
same,"P. berghei liver stage growth, dose-response data points (Figure 3A)",P. berghei liver stages; 0.015241580 uM,99.66 and 97.59 and 102.8 and 91.81 and 95.85 and 112.3 and 109.1 and 88.24 and 102.7
same,"P. berghei liver stage growth, dose-response data points (Figure 3A)",P. berghei liver stages; 0.045724740 uM,109 and 90.36 and 103.8 and 84.25 and 83.27 and 86.47 and 94.66 and 88.64 and 73.11
same,"P. berghei liver stage growth, dose-response data points (Figure 3A)",P. berghei liver stages; 0.137174210 uM,94.49 and 73.84 and 68.67 and 79.23 and 76.1 and 53.42 and 81.73 and 93.15 and 81.23
same,Figure 3E dose-response value (replicates),P. berghei liver stages; 0.145312500 uM,100.6 and 88.31 and 76.37 and 94.25
same,Figure 3E dose-response value (replicates),P. berghei liver stages; 0.290625000 uM,94.35 and 94.79 and 85.61 and 89.45 and 87.37 and 88.47 and 84.93 and 94.4 and 94.85 and 93.84 and 89.47 and 91.21
same,"P. berghei liver stage growth, dose-response data points (Figure 3A)",P. berghei liver stages; 0.411522630 uM,13.94 and 18.07 and 25.3 and 9.363 and 14.77 and 12.23 and 25.32 and 28.82 and 21.11
same,Figure 3E dose-response value (replicates),P. berghei liver stages; 0.581250000 uM,102.2 and 80.25 and 95.76 and 90.1 and 83.44 and 75.35 and 88.55 and 97.11 and 92.72 and 86.07 and 93.7 and 93.03
same,Figure 3E dose-response value (replicates),P. berghei liver stages; 1.162500000 uM,80.19 and 74.87 and 75.85 and 88.24 and 81.26 and 89.14 and 75.39 and 78.14 and 86.59 and 91.1 and 86.79 and 86.51
same,"P. berghei liver stage growth, dose-response data points (Figure 3A)",P. berghei liver stages; 1.234567900 uM,1.549 (2×) and -1.549 and 0.4997 and 0.5648 and 2.455 and 1.57 and 4.175 and 3.674
same,Figure 3E dose-response value (replicates),P. berghei liver stages; 2.325000000 uM,53.31 and 45.1 and 53.66 and 84.74 and 82.81 and 85.04 and 49.27 and 57.96 and 49.51 and 76.01 and 76.49 and 71.94
same,"P. berghei liver stage growth, dose-response data points (Figure 3A)",P. berghei liver stages; 3.703703700 uM,-1.549 and -0.5164 and -3.614 and 0.04345 and -0.02173 and 0.1086 and 0.3674 and 0.5678 and 1.47
same,Figure 3E dose-response value (replicates),P. berghei liver stages; 4.650000000 uM,7.681 and 6.67 and 6.188 and 47.84 and 67.52 and 65.25 and 8.114 and 8.015 and 9.768 and 28.34 and 27.7 and 22
same,Figure 3E dose-response value (replicates),P. berghei liver stages; 9.300000000 uM,1.871 and 0.7826 and 2.182 and 4.713 and 13.07 and 10.27 and 2.653 and 3.064 and 2.474 and 6.135 and 6.853 and 6.628
same,"P. berghei liver stage growth, dose-response data points (Figure 3A)",P. berghei liver stages; 11.111111100 uM,-2.582 (2×) and -3.614 and -0.0869 and 0.1086 and 0.4997 and 0.5678 and 0.4676 and 0.7682
same,Figure 3E dose-response value (replicates),P. berghei liver stages; 18.600000000 uM,1.555 and 0.8085 and 1.399 and 1.289 and 0.3453 and 0.9092 and 0.9717 and 1.016 and 1.705 and 1.904 and 2.379 and 2.285
same,"P. berghei liver stage growth, dose-response data points (Figure 3A)",P. berghei liver stages; 33.333333300 uM,-2.582 and -1.549 and -0.5164 and -0.02173 and 0.3041 (2×) and 0.3674 (2×) and 0.9686
same,Figure 3E dose-response value (replicates),P. berghei liver stages; 37.200000000 uM,2.576 and 1.923 and 1.736 and -0.9169 and -0.5313 and 0.3203 and 0.31 and 1.213 and 0.6856 and 1.324 and 1.043 and 1.236
same,"P. berghei liver stage growth, dose-response data points (Figure 3A)",P. berghei liver stages; 100.000000000 uM,0.5164 and -1.549 and 1.549 and 0.04345 and 0.4997 and 0.1086 and 0.5678 (2×) and 0.668
same,Fold reduction in IC50 compared to primaquine alone,P. berghei liver stages; 48 h,~ 15 fold
same,IC50,"P. berghei liver stages; Plasmodium berghei, Huh-7, 48 h, read-out: IC50, P. berghei liver stage growth inhibition",0.2 µM
same,"Gametocyte stage III-IV viability, percentage of control","[2]; 0.390625000 uM, 0.390625 µM",106.6% and 106.4% and 106.3% and 105.9% and 97.84% and 98.56% and 99.18% and 96.09% and 94.81% and 99.34% and 96.51%
same,"Gametocyte stage III-IV viability, percentage of control","[2]; 0.781250000 uM, 0.78125 µM",105.6% and 103.6% (2×) and 99.85% and 95.38% and 98.97% and 96.71% and 98.76% and 95.09% and 98.49% and 100.2%
